system: P. aeruginosa (ATCC 9027); assay: Dynamic Shake Flask (based on ASTM E 2149-01) on treated nonwoven; type: cell-based; conditions: Table 13; Meltblown; contact time 1 min
Description: (§1) The test organisms are grown in 25 mL appropriate broth medium for about 24±2 hours at 37±2° C. in a wrist action shaker. The bacterial culture is then transferred by placing about 100 μL aliquot in 25 mL of broth and grown again for about 24±2 hours at 37±2° C. The organisms are then centrifuged and washed three times with phosphate buffered saline (PBS). The organisms are then suspended in PBS to obtain an inoculum of approximately 1×10^8 CFU/mL.
(§2) The test articles and control swatches are exposed to an ultraviolet light source for about 5-10 minutes per side before testing to assure that the swatches are sanitized prior to inoculation with the bacteria. The test materials are brought into contact with a known population of test bacteria from the inoculum for a specified period of time. A sample is then plated at the end of the exposure time to enumerate the surviving bacteria. The log10 reduction form the control material and the original population is calculated using the following formula: Log10 Control*−Log10 CFU/swatch Test Article=Log10 Reduction
[…] This buffer solution contains a chemical to de-activate or “neutralize” the antimicrobial agent to (a) stop the active agent from killing the organisms after the designated time period and (b) to prevent artifacts that may arise from exposing the microorganisms to the antimicrobial in solution rather than solely on the substrate. Because each chemical used as an antimicrobial agent is a little different (ie: cationic, nonionic, metal, etc), a different neutralizer was likely added in each case to shut off the antimicrobial at the desired end point of the experiment. […] The neutralizer employed may be selected from a list that is commonly used in the field. […] Testing Mat.

| Substance | Dynamic Shake Flask Log10 Reduction [Log10] |
| --- | --- |
| N-Alkyl Polyglycoside [1.0% Alkyl Polyglycoside] | 2.38 |
| Chitosan glycolate [1.0% Chitosan] | 0.5 |
| PG-Hydroxyethylcellulose Cocodimonium Chloride | 0.34 |

same assay, conditions: Table 13; Meltblown; contact time 5 min

| Substance | Dynamic Shake Flask Log10 Reduction [Log10] |
| --- | --- |
| N-Alkyl Polyglycoside [1.0% Alkyl Polyglycoside] | 4 |
| Chitosan glycolate [1.0% Chitosan] | 0.62 |
| PG-Hydroxyethylcellulose Cocodimonium Chloride | 0.35 |

same assay, conditions: Table 13; Meltblown; contact time 15 min

| Substance | Dynamic Shake Flask Log10 Reduction [Log10] |
| --- | --- |
| N-Alkyl Polyglycoside [1.0% Alkyl Polyglycoside] | 4 |
| Chitosan glycolate [1.0% Chitosan] | 0.61 |
| PG-Hydroxyethylcellulose Cocodimonium Chloride | 0.42 |

same assay, conditions: Table 13; SMS; contact time 1 min

| Substance | Dynamic Shake Flask Log10 Reduction [Log10] |
| --- | --- |
| N-Alkyl Polyglycoside [1.0% Alkyl Polyglycoside] | 0.37 |
| Chitosan glycolate [1.0% Chitosan] | 0.81 |
| PG-Hydroxyethylcellulose Cocodimonium Chloride | 4 |

same assay, conditions: Table 13; SMS; contact time 5 min

| Substance | Dynamic Shake Flask Log10 Reduction [Log10] |
| --- | --- |
| N-Alkyl Polyglycoside [1.0% Alkyl Polyglycoside] | 0.37 |
| Chitosan glycolate [1.0% Chitosan] | 4 |
| PG-Hydroxyethylcellulose Cocodimonium Chloride | 4 |

same assay, conditions: Table 13; SMS; contact time 15 min

| Substance | Dynamic Shake Flask Log10 Reduction [Log10] |
| --- | --- |
| N-Alkyl Polyglycoside [1.0% Alkyl Polyglycoside] | 0.36 |
| Chitosan glycolate [1.0% Chitosan] | 4 |
| PG-Hydroxyethylcellulose Cocodimonium Chloride | 4 |

same assay, conditions: Table 13; Spunbond; contact time 1 min

| Substance | Dynamic Shake Flask Log10 Reduction [Log10] |
| --- | --- |
| N-Alkyl Polyglycoside [1.0% Alkyl Polyglycoside] | 0.61 |
| Chitosan glycolate [1.0% Chitosan] | 0.47 |
| PG-Hydroxyethylcellulose Cocodimonium Chloride | 4 |

same assay, conditions: Table 13; Spunbond; contact time 5 min

| Substance | Dynamic Shake Flask Log10 Reduction [Log10] |
| --- | --- |
| N-Alkyl Polyglycoside [1.0% Alkyl Polyglycoside] | 0.41 |
| Chitosan glycolate [1.0% Chitosan] | 2.16 |
| PG-Hydroxyethylcellulose Cocodimonium Chloride | 4 |

same assay, conditions: Table 13; Spunbond; contact time 15 min

| Substance | Dynamic Shake Flask Log10 Reduction [Log10] |
| --- | --- |
| N-Alkyl Polyglycoside [1.0% Alkyl Polyglycoside] | 0.41 |
| Chitosan glycolate [1.0% Chitosan] | 4 |
| PG-Hydroxyethylcellulose Cocodimonium Chloride | 4 |

system: A. Niger (ATCC 16404); assay: as above; type: cell-based; conditions: Table 14; Spunbond; contact time 1 min
Description: as §1, §2
[…] This buffer solution contains a chemical to de-activate or “neutralize” the antimicrobial agent to (a) stop the active agent from killing the organisms after the designated time period and (b) to prevent artifacts that may arise from exposing the microorganisms to the antimicrobial in solution rather than solely on the substrate. Because each chemical used as an antimicrobial agent is a little different (ie: cationic, nonionic, metal, etc), a different neutralizer was likely added in each case to shut off the antimicrobial at the desired end point of the experiment. […] The neutralizer employed may be selected from a list that is commonly used in the field. These include, non-ionic degtergents, Bisulphate, lecithin, leethen broth, thiosulfate, thioglycolate, and pH buffers, Method similar to those described in American Society for Testing and Materials, Standard Practices for Evaluating Inactivators of Antimicrobial Agents Used in Disinfectant, Sanitizer, Antiseptic, or Preserved Products, Amer. Soc. Testing Mat. E 1054-91 (1991) can be used.

| Substance | Dynamic Shake Flask Log10 Reduction [Log10] |
| --- | --- |
| N-Alkyl Polyglycoside [1.0% Alkyl Polyglycoside] | 0.64 |
| Chitosan glycolate [1.0% Chitosan] | 0.11 |
| PG-Hydroxyethylcellulose Cocodimonium Chloride | 0.00 |

same assay, conditions: Table 14; Spunbond; contact time 5 min

| Substance | Dynamic Shake Flask Log10 Reduction [Log10] |
| --- | --- |
| N-Alkyl Polyglycoside [1.0% Alkyl Polyglycoside] | 0.53 |
| Chitosan glycolate [1.0% Chitosan] | 0.27 |
| PG-Hydroxyethylcellulose Cocodimonium Chloride | 0.01 |

same assay, conditions: Table 14; Spunbond; contact time 15 min

| Substance | Dynamic Shake Flask Log10 Reduction [Log10] |
| --- | --- |
| N-Alkyl Polyglycoside [1.0% Alkyl Polyglycoside] | 0.50 |
| Chitosan glycolate [1.0% Chitosan] | 0.31 |
| PG-Hydroxyethylcellulose Cocodimonium Chloride | 0.07 |

system: S. aureus (ATCC 6538); assay: as above; type: cell-based; conditions: Table 12; Meltblown; contact time 1 min

| Substance | Dynamic Shake Flask Log10 Reduction [Log10] |
| --- | --- |
| N-Alkyl Polyglycoside [1.0% Alkyl Polyglycoside] | 2.97 |
| Chitosan glycolate [1.0% Chitosan] | 0.26 |
| PG-Hydroxyethylcellulose Cocodimonium Chloride | 0.09 |

same assay, conditions: Table 12; Meltblown; contact time 5 min

| Substance | Dynamic Shake Flask Log10 Reduction [Log10] |
| --- | --- |
| N-Alkyl Polyglycoside [1.0% Alkyl Polyglycoside] | 4 |
| Chitosan glycolate [1.0% Chitosan] | 0.21 |
| PG-Hydroxyethylcellulose Cocodimonium Chloride | 0.2 |

same assay, conditions: Table 12; Meltblown; contact time 15 min

| Substance | Dynamic Shake Flask Log10 Reduction [Log10] |
| --- | --- |
| N-Alkyl Polyglycoside [1.0% Alkyl Polyglycoside] | 4 |
| Chitosan glycolate [1.0% Chitosan] | 0.25 |
| PG-Hydroxyethylcellulose Cocodimonium Chloride | 0.44 |

same assay, conditions: Table 12; SMS; contact time 1 min

| Substance | Dynamic Shake Flask Log10 Reduction [Log10] |
| --- | --- |
| N-Alkyl Polyglycoside [1.0% Alkyl Polyglycoside] | 0 |
| Chitosan glycolate [1.0% Chitosan] | 0.03 |
| PG-Hydroxyethylcellulose Cocodimonium Chloride | 1.38 |

same assay, conditions: Table 12; SMS; contact time 5 min

| Substance | Dynamic Shake Flask Log10 Reduction [Log10] |
| --- | --- |
| N-Alkyl Polyglycoside [1.0% Alkyl Polyglycoside] | 0 |
| Chitosan glycolate [1.0% Chitosan] | 0.57 |
| PG-Hydroxyethylcellulose Cocodimonium Chloride | 2.97 |

same assay, conditions: Table 12; SMS; contact time 15 min

| Substance | Dynamic Shake Flask Log10 Reduction [Log10] |
| --- | --- |
| N-Alkyl Polyglycoside [1.0% Alkyl Polyglycoside] | 0 |
| Chitosan glycolate [1.0% Chitosan] | 1.03 |
| PG-Hydroxyethylcellulose Cocodimonium Chloride | 4 |

same assay, conditions: Table 12; Spunbond; contact time 1 min

| Substance | Dynamic Shake Flask Log10 Reduction [Log10] |
| --- | --- |
| N-Alkyl Polyglycoside [1.0% Alkyl Polyglycoside] | 0 |
| Chitosan glycolate [1.0% Chitosan] | 0 |
| PG-Hydroxyethylcellulose Cocodimonium Chloride | 0.33 |

same assay, conditions: Table 12; Spunbond; contact time 5 min

| Substance | Dynamic Shake Flask Log10 Reduction [Log10] |
| --- | --- |
| N-Alkyl Polyglycoside [1.0% Alkyl Polyglycoside] | 0 |
| Chitosan glycolate [1.0% Chitosan] | 0.64 |
| PG-Hydroxyethylcellulose Cocodimonium Chloride | 0.63 |

same assay, conditions: Table 12; Spunbond; contact time 15 min

| Substance | Dynamic Shake Flask Log10 Reduction [Log10] |
| --- | --- |
| N-Alkyl Polyglycoside [1.0% Alkyl Polyglycoside] | 0 |
| Chitosan glycolate [1.0% Chitosan] | 2.05 |
| PG-Hydroxyethylcellulose Cocodimonium Chloride | 1.74 |

system: C. Albicans (ATCC 10231); assay: as above; type: cell-based; conditions: Table 15; SMS; contact time 1 min

| Substance | Dynamic Shake Flask Log10 Reduction [Log10] |
| --- | --- |
| N-Alkyl Polyglycoside [1.0% Alkyl Polyglycoside] | 0.59 |
| Chitosan glycolate [1.0% Chitosan] | 0.04 |
| PG-Hydroxyethylcellulose Cocodimonium Chloride | 1.25 |

same assay, conditions: Table 15; SMS; contact time 5 min

| Substance | Dynamic Shake Flask Log10 Reduction [Log10] |
| --- | --- |
| N-Alkyl Polyglycoside [1.0% Alkyl Polyglycoside] | 0.08 |
| Chitosan glycolate [1.0% Chitosan] | 0.13 |
| PG-Hydroxyethylcellulose Cocodimonium Chloride | 2.12 |

same assay, conditions: Table 15; SMS; contact time 15 min

| Substance | Dynamic Shake Flask Log10 Reduction [Log10] |
| --- | --- |
| N-Alkyl Polyglycoside [1.0% Alkyl Polyglycoside] | 0.19 |
| Chitosan glycolate [1.0% Chitosan] | 1 |
| PG-Hydroxyethylcellulose Cocodimonium Chloride | 2.56 |

Reference: patent US20070048356A1, “Antimicrobial treatment of nonwoven materials for infection control” (priority 2005, published 2007)
